Test results published in US10494376B2, “Tetrahydroisoquinoline derived PRMT5-inhibitors” (CTXT PTY LTD, priority 2014, dated 2019).
Where a name gives a salt, the structure may show the parent alone.

Biological target: Full-length PRMT5 enzyme (NCBI Reference sequence NP_006100.2) co-expressed with His6-MEP50 (Homo sapiens (Human), UniProt O14744)
Assay: Revised PRMT5 Biochemical Assay
Details: 1 μM peptide substrate, 1 μM S-Adenosyl methionine, 4 hours at 37 degree Celsius, Transcreener EPIGEN fluorescence polarisation
Method: Compounds of the invention may be tested for in vitro activity in the following assay: A histone H4 derived peptide is used as substrate (amino acid sequence: […]N H2). Full-length PRMT5 enzyme (NCBI Reference sequence NP_006100.2) was co-expressed with His6-MEP50 in insect cells and purified via Nickel immobilized metal affinity and gel filtration chromatography (“the enzyme”).
The 6 μL reactions are run in Greiner brand black 384-well low volume assay plates. All reactions contained assay buffer (phosphate buffered saline, 0.01% (v/v) Tween-20, 0.01% (w/v) albumin from chicken egg white, 1 mM Dithiothreitol, 1 μM peptide substrate, 1 μM S-Adenosyl methionine, and 15 ng/reaction enzyme, with the enzyme being omitted from negative control reactions. Compounds were added in a volume of 100 nL from dilution series prepared in DMSO, positive and negative control reactions receiving the same volume DMSO without compound. The plates were sealed with adhesive seals and incubated for 4 hours at 37 degree Celsius. Reaction progress was measured using the Transcreener™ EPIGEN methyltransferase assay (BellBrook Labs, Madison, Wis.) as recommended by the manufacturer. To each reaction 2 μL detection mix were added, containing coupling enzymes, fluorescence polarisation tracer, and AMP antibody. Plates were incubated for 90 minutes before being read on a PerkinElmer EnVision™ plate reader in fluorescence polarisation mode. IC50 values were obtained from the raw readings by calculating percent inhibition (%1) for each reaction relative to controls on the same plate (% I=(I−CN)/(CP−CN) where CN/CP are the averages of the negative/positive reactions, respectively), then fitting the %1 data vs. compound concentration [I] to % I=(A+((B−A)/(1+((C/[I])^D)))) where A is the lower asymptote, B is the upper asymptote, C is the IC50 value, and D is the slope.

Full-length PRMT5 enzyme (NCBI Reference sequence NP_006100.2) co-expressed with His6-MEP50, sequence (O14744 whole entry): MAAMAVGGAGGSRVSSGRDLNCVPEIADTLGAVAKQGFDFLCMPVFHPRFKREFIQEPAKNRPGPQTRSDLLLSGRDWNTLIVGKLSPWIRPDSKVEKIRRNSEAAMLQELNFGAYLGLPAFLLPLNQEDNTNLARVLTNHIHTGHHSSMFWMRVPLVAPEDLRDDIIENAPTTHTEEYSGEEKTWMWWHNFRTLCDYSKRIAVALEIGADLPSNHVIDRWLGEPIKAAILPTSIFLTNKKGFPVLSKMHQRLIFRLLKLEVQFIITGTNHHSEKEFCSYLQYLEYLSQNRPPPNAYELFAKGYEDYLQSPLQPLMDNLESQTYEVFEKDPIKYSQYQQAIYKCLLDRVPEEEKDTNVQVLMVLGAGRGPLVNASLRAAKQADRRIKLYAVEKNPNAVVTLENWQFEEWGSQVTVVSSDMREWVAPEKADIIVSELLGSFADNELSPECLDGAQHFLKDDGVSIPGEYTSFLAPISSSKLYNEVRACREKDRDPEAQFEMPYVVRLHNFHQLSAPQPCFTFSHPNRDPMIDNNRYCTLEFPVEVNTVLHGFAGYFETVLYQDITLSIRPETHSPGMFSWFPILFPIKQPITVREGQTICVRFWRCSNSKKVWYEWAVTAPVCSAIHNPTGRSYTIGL
Full-length PRMT5 enzyme (NCBI Reference sequence NP_006100.2) co-expressed with His6-MEP50, sequence (Q9BQA1 whole entry partner): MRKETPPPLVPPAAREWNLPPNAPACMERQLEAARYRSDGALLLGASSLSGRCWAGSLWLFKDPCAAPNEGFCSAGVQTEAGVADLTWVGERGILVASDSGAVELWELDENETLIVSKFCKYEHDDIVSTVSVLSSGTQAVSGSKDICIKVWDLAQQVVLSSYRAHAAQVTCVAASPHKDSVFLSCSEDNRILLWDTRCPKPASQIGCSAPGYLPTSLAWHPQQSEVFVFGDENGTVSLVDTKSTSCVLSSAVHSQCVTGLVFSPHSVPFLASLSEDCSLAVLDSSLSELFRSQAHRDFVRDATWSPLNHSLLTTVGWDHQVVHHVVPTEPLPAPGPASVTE

| IC50 [nM] | SMILES |
| --- | --- |
| 967 | O=C(NC[C@@H](O)[C@@H]1Cc2ccccc2CN1)c1ccc(C(=O)N2CCCC(O)C2)cc1 (stereo partly drawn) [Example 43, N-((R)-2-Hydroxy-2-((S)-1,2,3,4-tetrahydroisoquinolin-3-yl)ethyl)-4-(3-hydroxypiperidine-1-carbonyl)benzamide] |
| 1240 | O=C(NC[C@@H](O)[C@@H]1Cc2ccccc2CN1)c1ccc(C(=O)NC2CCC(F)(F)CC2)cc1 [Example 44, N^1-(4,4-Difluorocyclohexyl)-N^4-((R)-2-hydroxy-2-((S)-1,2,3,4-tetrahydroisoquinolin-3-yl)ethyl)terephthalamide] |
| 500 | O=C(NC[C@@H](O)[C@@H]1Cc2ccccc2CN1)c1ccc(C(=O)N2CCC(O)CC2)cc1 [Example 45, N-((R)-2-Hydroxy-2-((S)-1,2,3,4-tetrahydroisoquinolin-3-yl)ethyl)-4-(4-hydroxypiperidine-1-carbonyl)benzamide] |
| 230 | O=C(NC[C@@H](O)[C@@H]1Cc2ccccc2CN1)c1ccc(C(=O)N2CCC(C(F)F)CC2)cc1 [Example 46, 4-(4-(Difluoromethyl)piperidine-1-carbonyl)-N-((R)-2-hydroxy-2-((S)-1,2,3,4-tetrahydroisoquinolin-3-yl)ethyl)benzamide] |
| 3370 | O=C(NC[C@@H](O)[C@@H]1Cc2ccccc2CN1)c1ccc(C(=O)N2CCC(O)C2)cc1 (stereo partly drawn) [Example 47, N-((R)-2-Hydroxy-2-((S)-1,2,3,4-tetrahydroisoquinolin-3-yl)ethyl)-4-(3-hydroxypyrrolidine-1-carbonyl)benzamide] |
| 192 | O=C(NC[C@@H](O)[C@@H]1Cc2ccccc2CN1)c1ccc(Cl)cc1 [Example 48, 4-Chloro-N—((R)-2-hydroxy-2-((S)-1,2,3,4-tetrahydroisoquinolin-3-yl)ethyl)benzamide] |
| 3330 | O=C(NC[C@H](O)[C@@H]1Cc2ccccc2CN1)c1ccc(C(=O)N2CCOCC2)cc1 [Example 52, N—((S)-2-Hydroxy-2-((S)-1,2,3,4-tetrahydroisoquinolin-3-yl)ethyl)-4-(morpholine-4-carbonyl)benzamide hydrochloride] |
| 82100 | O=C(NC[C@@H](O)[C@H]1Cc2ccccc2CN1)c1ccc(C(=O)N2CCOCC2)cc1 [Example 54, N—((R)-2-Hydroxy-2-((R)-1,2,3,4-tetrahydroisoquinolin-3-yl)ethyl)-4-(morpholine-4-carbonyl)benzamide hydrochloride] |
| 383 | O=C(NCc1ccccn1)c1ccc(C(=O)NC[C@@H](O)[C@@H]2Cc3ccccc3CN2)cc1 [Example 56, N^1-((R)-2-Hydroxy-2-((S)-1,2,3,4-tetrahydroisoquinolin-3-yl)ethyl)-N^4-(pyridin-2-ylmethly)terephthalamide] |
| 594 | O=C(NC[C@@H](O)[C@@H]1Cc2ccccc2CN1)c1ccc(OCC(F)(F)F)nc1 [Example 57, N-((R)-2-Hydroxy-2-((S)-1,2,3,4-tetrahydroisoquinolin-3-yl)ethyl)-6-(2,2,2-trifluoroethoxy)nicotinamide] |
| 657 | O=C(NC[C@@H](O)[C@@H]1Cc2ccccc2CN1)c1ccc(OCC2CC2)nc1 [Example 58, 6-(Cyclopropylmethoxy)-N-((R)-2-hydroxy-2-((S)-1,2,3,4-tetrahydroisoquinolin-3-yl)ethyl)nicotinamide] |
| 593 | CC(C)Oc1ccc(C(=O)NC[C@@H](O)[C@@H]2Cc3ccccc3CN2)cn1 [Example 59, N-((R)-2-Hydroxy-2-((S)-1,2,3,4-tetrahydroisoquinolin-3-yl)ethyl)-6-isopropoxynicotinamide] |
| 3300 | COC(=O)N1CCC(Oc2cccc(C(=O)NC[C@@H](O)[C@@H]3Cc4ccccc4CN3)c2)CC1 [Example 60, Methyl 4-(3-(((R)-2-hydroxy-2-((S)-1,2,3,4-tetrahydroisoquinolin-3-yl)ethyl)carbamoyl)phenoxy)piperidine-1-carboxylate] |
| 104 | CC(C)OC(=O)N1CCC(Oc2cc(C(=O)NC[C@@H](O)[C@@H]3Cc4ccccc4CN3)ccn2)CC1 [Example 61, Isopropyl 4-((4-(((R)-2-hydroxy-2-((S)-1,2,3,4-tetrahydroisoquinolin-3-yl)ethyl)carbamoyl)pyridin-2-yl)oxy)piperidine-1-carboxylate] |
| 102 | CC(C)COC(=O)N1CCC(Oc2cc(C(=O)NC[C@@H](O)[C@@H]3Cc4ccccc4CN3)ccn2)CC1 [Example 62, Isobutyl 4-((4-(((R)-2-hydroxy-2-((S)-1,2,3,4-tetrahydroisoquinolin-3-yl)ethyl)carbamoyl)pyridin-2-yl)oxy)piperidine-1-carboxylate] |
| 245 | O=C(NC[C@@H](O)[C@@H]1Cc2ccccc2CN1)c1ccnc(OCC(F)(F)F)c1 [Example 63, N-((R)-2-hydroxy-2-((S)-1,2,3,4-tetrahydroisoquinolin-3-yl)ethyl)-2-(2,2,2-trifluoroethoxy)isonicotinamide] |
| 261 | CC(C)Oc1cc(C(=O)NC[C@@H](O)[C@@H]2Cc3ccccc3CN2)ccn1 [Example 64, N-((R)-2-hydroxy-2-((S)-1,2,3,4-tetrahydroisoquinolin-3-yl)ethyl)-2-isopropoxyisonicotinamide] |
| 2290 | NC(=O)COc1ccccc1C(=O)NC[C@@H](O)[C@@H]1Cc2ccccc2CN1 [Example 65, 2-(2-Amino-2-oxoethoxy)-N-((R)-2-hydroxy-2-((S)-1,2,3,4-tetrahydroisoquinolin-3-yl)ethyl)benzamide] |
| 329 | CC(=O)N1CCN(C(=O)c2ccc(C(=O)NC[C@@H](O)[C@@H]3Cc4ccccc4CN3)cc2)CC1 [Example 66, 4-(4-Acetylpiperazine-1-carbonyl)-N-((R)-2-hydroxy-2-((S)-1,2,3,4-tetrahydroisoquinolin-3-yl)ethyl)benzamide] |
| 307 | COC(=O)N1CCN(C(=O)c2ccc(C(=O)NC[C@@H](O)[C@@H]3Cc4ccccc4CN3)cc2)CC1 [Example 67, Methyl 4-(4-(((R)-2-hydroxy-2-((S)-1,2,3,4-tetrahydroisoquinolin-3-yl)ethyl)carbamoyl)benzoyl)piperazine-1-carboxylate] |
| 2260 | CC(=O)N1CCC(Oc2ccccc2C(=O)NC[C@@H](O)[C@@H]2Cc3ccccc3CN2)CC1 [Example 68, 2-((1-Acetylpiperidin-4-yl)oxy)-N-((R)-2-hydroxy-2-((S)-1,2,3,4-tetrahydroisoquinolin-3-yl)ethyl)benzamide] |
| 939 | COc1cc(C(=O)NC[C@@H](O)[C@@H]2Cc3ccccc3CN2)ccn1 [Example 71, N-((R)-2-Hydroxy-2-((S)-1,2,3,4-tetrahydroisoquinolin-3-yl)ethyl)-2-methoxyisonicotinamide dihydrochloride] |
| 585 | O=C(NC[C@@H](O)[C@@H]1Cc2ccccc2CN1)c1ccc(CC(=O)N2CCCCC2)nc1 [Example 72, N-((R)-2-Hydroxy-2-((S)-1,2,3,4-tetrahydroisoquinolin-3-yl)ethyl)-6-(2-oxo-2-(piperidin-1-yl)ethyl)nicotinamide dihydrochloride] |
| 2270 | O=C(NC[C@@H](O)[C@@H]1Cc2ccccc2CN1)c1ccnc(C2CCOCC2)c1 [Example 73, N-((R)-2-Hydroxy-2-((S)-1,2,3,4-tetrahydroisoquinolin-3-yl)ethyl)-2-(tetrahydro-2H-pyran-4-yl)isonicotinamide dihydrochloride] |
| 1200 | O=C(NC[C@@H](O)[C@@H]1Cc2ccccc2CN1)c1cc(OC2CCOCC2)ncc1Cl [Example 75, 5-Chloro-N-((R)-2-hydroxy-2-((S)-1,2,3,4-tetrahydroisoquinolin-3-yl)ethyl)-2-((tetrahydro-2H-pyran-4-yl)oxy)isonicotinamide dihydrochloride] |
| 262 | COC(=O)N1CCC(Oc2cc(C(=O)NC[C@@H](O)[C@@H]3Cc4ccccc4CN3)ncn2)CC1 [Example 76, Methyl 4-((6-(((R)-2-hydroxy-2-((S)-1,2,3,4-tetrahydroisoquinolin-3-yl)ethyl)carbamoyl)pyrimidin-4-yl)oxy)piperidine-1-carboxylate dihydrochloride] |
| 8760 | O=C(NC[C@@H](O)[C@@H]1Cc2ccccc2CN1)c1ccncc1 [Example 77, N-((R)-2-Hydroxy-2-((S)-1,2,3,4-tetrahydroisoquinolin-3-yl)ethyl)isonicotinamide dihydrochloride] |

| SMILES | IC50 [nM] |
| --- | --- |
| O=C(NC[C@@H](O)[C@@H]1Cc2ccccc2CN1)c1ccc(C(=O)N2C3CCC2CC(O)C3)cc1 (stereo partly drawn) [Example 42, N-((R)-2-Hydroxy-2-((S)-1,2,3,4-tetrahydroisoquinolin-3-yl)ethyl)-4-(3-hydroxy-8-azabicyclo[3.2.1]octane-8-carbonyl)benzamide] | 212 |
| CCOc1nc(C(=O)N2C3CCC2COC3)ccc1C(=O)NC[C@@H](O)[C@@H]1Cc2ccccc2CN1 [Example 70, 6-(3-Oxa-8-azabicyclo[3.2.1]octane-8-carbonyl)-2-ethoxy-N-((R)-2-hydroxy-2-((S)-1,2,3,4-tetrahydroisoquinolin-3-yl)ethyl)nicotinamide] | 121 |
